Results on 18 molecules are retold here after patent publication US20210038607A1, “OXADIAZOLYLTHIOPHENE DERIVATIVES USEFUL AS HISTONE DEACETYLASE INHIBITORS” (Karus Therapeutics Limited, priority 2018, published 2021).

The target of test [1] is T1, Human HDAC10 (Homo sapiens, UniProt Q969S8).
T1 construct: Human HDAC10 (a.a. 1-481); GST (N); His (C); host or cells: baculovirus expression system
T1 sequence (Q969S8 1-481): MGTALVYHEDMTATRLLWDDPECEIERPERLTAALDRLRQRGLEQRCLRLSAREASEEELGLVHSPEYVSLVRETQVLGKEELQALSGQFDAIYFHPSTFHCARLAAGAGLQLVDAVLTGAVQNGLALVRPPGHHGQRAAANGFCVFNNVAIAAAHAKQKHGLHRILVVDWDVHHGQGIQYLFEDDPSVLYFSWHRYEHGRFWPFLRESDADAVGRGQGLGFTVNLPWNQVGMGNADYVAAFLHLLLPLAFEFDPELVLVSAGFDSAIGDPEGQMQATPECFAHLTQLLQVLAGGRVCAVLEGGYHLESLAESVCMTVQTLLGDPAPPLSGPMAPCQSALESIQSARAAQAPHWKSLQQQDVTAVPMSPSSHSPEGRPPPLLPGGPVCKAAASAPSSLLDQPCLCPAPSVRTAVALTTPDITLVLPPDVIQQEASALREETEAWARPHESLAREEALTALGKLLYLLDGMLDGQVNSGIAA
Nature of the test: HDAC10 biochemical assay, AMC-labeled peptide substrate. To be noted: read-out: HDAC Isoform IC50 (nM) 10. Here is the method:
(§1) Activity against all zinc-dependent HDACs 1 to 11 was assessed by using an acetylated AMC-labeled peptide substrate. The substrate RHKK(Ac)AMC was used for HDAC1, HDAC2, HDAC3, HDAC6 and HDAC10; the substrate used for HDAC8 was RHK(Ac)K(Ac)AMC. Activity against the class IIa HDACs (HDAC4, 5, 7, 9) and HDAC11 was determined using a class IIa-specific substrate, BOC-Lys(trifluoroacetyl)-AMC (“Trifluoroacetyl Lysine”; see Lahm et al, 2007, PNAS, 104, 17335-17340). All assays were based on the AMC-labeled substrate and developer combination.
(§2) The protocol involved a two-step reaction: first, the substrate with the acetylated lysine side chain is incubated with a sample containing HDAC activity, to produce the deacetylated products, which are then digested in the second step by the addition of developer to produce the fluorescent signal proportional to the amount of deacetylated substrates.
Human HDAC10 (a.a. 1-481), GenBank Accession No. NM_032019 with N-terminal GST tag and C-terminal His tag, MW=78 kDa, expressed in baculovirus expression system.
(§3) Assay Buffer: 50 mM Tris-HCl, pH8.0, 137 mM NaCl, 2.7 mM KCl, 1 mM MgC2. Before use, 1 mg/mL BSA and DMSO are added.
HDAC10: 12 ng/ul HDAC10 and 50 μM HDAC substrate are in the reaction buffer with 1% DMSO final. Incubate for 2 hours at 30° C.
(§4) Stage 1: Deacetylation of substrate by incubation of HDAC enzymes with compounds
(§5) Stage 2: Development by addition of Developer to digest the deacetylated substrate, and generate the fluorescent colour; Detection: 360/460 Ex/Em

For test [2], the target named is T2, Human HDAC11 (Homo sapiens, UniProt Q96DB2).
T2 construct: Human HDAC11 (full length); His (N); host or cells: baculovirus expression system
T2 sequence (Q96DB2 1-347): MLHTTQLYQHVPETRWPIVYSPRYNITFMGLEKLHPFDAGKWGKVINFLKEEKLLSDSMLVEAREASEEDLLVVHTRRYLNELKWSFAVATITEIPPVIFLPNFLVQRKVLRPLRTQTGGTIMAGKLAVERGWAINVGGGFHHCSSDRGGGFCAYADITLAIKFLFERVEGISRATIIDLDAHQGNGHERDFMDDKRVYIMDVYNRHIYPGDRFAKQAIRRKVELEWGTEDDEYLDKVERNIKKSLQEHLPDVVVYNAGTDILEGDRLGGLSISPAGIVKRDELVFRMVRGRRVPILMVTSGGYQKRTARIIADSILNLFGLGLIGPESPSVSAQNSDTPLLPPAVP
As to the kind of experiment: HDAC11 biochemical assay, class IIa-specific substrate. The following applies: read-out: HDAC Isoform IC50 (nM) 11. The method, then: as §1, §2
Human HDAC11 (full length) (GenBank Accession No. NM_024827) with N-terminal His tag, MW=42.9 kDa, expressed in baculovirus expression system.
as §3
HDAC11: 5 ng/ul HDAC11 and 50 μMHDAC substrate are in the reaction buffer with 1% DMSO final. Incubate for 30 minutes at 30° C.
as §4, §5

Turning to `O=C(c1cnnc(N(Cc2ccc(-c3noc(C(F)(F)F)n3)s2)c2cnccn2)c1)N1CC2CCC(C1)O2` [Example GA, 5-{8-Oxa-3-azabicyclo[3.2.1]octane-3-carbonyl}-N-(pyrazin-2-yl)-N-({5-[5-(trifluoromethyl)-1,2,4-oxadiazol-3-yl]thiophen-2-yl}methyl)pyridazin-3-amine], the IC50 in test [1] and in test [2] was greater than 10000 nM throughout.

As to `O=C(c1cnnc(N(Cc2ccc(-c3noc(C(F)(F)F)n3)s2)c2cnccn2)c1)N1C2CCC1COC2` [Example GB, 5-{3-Oxa-8-azabicyclo[3.2.1]octane-8-carbonyl}-N-(pyrazin-2-yl)-N-({5-[5-(trifluoromethyl)-1,2,4-oxadiazol-3-yl]thiophen-2-yl}methyl)pyridazin-3-amine], the IC50 in test [1] and in test [2] was greater than 10000 nM in each case.

Consider `CC(C)OC1CN(C(=O)c2cnnc(N(Cc3ccc(-c4noc(C(F)(F)F)n4)s3)c3cnccn3)c2)C1` [Example GC, 5-[3-(Propan-2-yloxy)azetidine-1-carbonyl]-N-(pyrazin-2-yl)-N-({5-[5-(trifluoromethyl)-1,2,4-oxadiazol-3-yl]thiophen-2-yl}methyl)pyridazin-3-amine], for which the IC50 in test [1] and in test [2] was greater than 10000 nM throughout.

Consider `O=C(c1cnnc(N(Cc2ccc(-c3noc(C(F)(F)F)n3)s2)c2cnccn2)c1)N1CC(O)(C(F)(F)F)C1` [Example GD, 1-{6-[(Pyrazin-2-yl)({5-[5-(trifluoromethyl)-1,2,4-oxadiazol-3-yl]thiophen-2-yl}methyl)amino]pyridazine-4-carbonyl}-3-(trifluoromethyl)azetidin-3-ol], for which the IC50 in test [1] and in test [2] was greater than 10000 nM in each case.

In the case of `CN(C(=O)c1cnnc(N(Cc2ccc(-c3noc(C(F)(F)F)n3)s2)c2cnccn2)c1)S(C)(=O)=O` [Example GE, N-Methanesulfonyl-N-methyl-6-[(pyrazin-2-yl)({5-[5-(trifluoromethyl)-1,2,4-oxadiazol-3-yl]thiophen-2-yl}methyl)amino]pyridazine-4-carboxamide], the IC50 in test [1] and in test [2] was greater than 10000 nM in each case.

In the case of `FC(F)(F)c1nc(-c2ccc(CN(c3cnccn3)c3cc(CN4CCCC4)ccn3)s2)no1` [Example GG, N-{4-[(Pyrrolidin-1-yl)methyl]pyridin-2-yl}-N-({5-[5-(trifluoromethyl)-1,2,4-oxadiazol-3-yl]thiophen-2-yl}methyl)pyrazin-2-amine], the 50% inhibitory concentration (IC50) in test [1] and in test [2] was greater than 10000 nM throughout.

With `FC(F)(F)c1nc(-c2ccc(CN(c3cnccn3)c3cc(-c4ccccn4)cnn3)s2)no1` [Example GM, N-(Pyrazin-2-yl)-5-(pyridin-2-yl)-N-({5-[5-(trifluoromethyl)-1,2,4-oxadiazol-3-yl]thiophen-2-yl}methyl)pyridazin-3-amine], the IC50 in test [1] and in test [2] was greater than 10000 nM each time.

Turning to `Cc1cnnc(N(Cc2ccc(-c3noc(C(F)(F)F)n3)s2)c2cnccn2)c1` [Example GN, 5-Methyl-N-(pyrazin-2-yl)-N-({5-[5-(trifluoromethyl)-1,2,4-oxadiazol-3-yl]thiophen-2-yl}methyl)pyridazin-3-amine], the IC50 in test [1] and in test [2] was greater than 10000 nM in each case.

Consider `NC(=O)c1nccnc1N(Cc1ccc(-c2noc(C(F)(F)F)n2)s1)c1cnccn1` [Example GO, 3-[(Pyrazin-2-yl)({5-[5-(trifluoromethyl)-1,2,4-oxadiazol-3-yl]thiophen-2-yl}methyl)amino]pyrazine-2-carboxamide], for which the IC50 in test [1] and in test [2] was greater than 10000 nM throughout.

As to `O=C(c1nccnc1N(Cc1ccc(-c2noc(C(F)(F)F)n2)s1)c1cnccn1)N1CC(O)(C(F)(F)F)C1` [Example GQ, 1-{3-[(Pyrazin-2-yl)({5-[5-(trifluoromethyl)-1,2,4-oxadiazol-3-yl]thiophen-2-yl}methyl)amino]pyrazine-2-carbonyl}-3-(trifluoromethyl)azetidin-3-ol], the IC50 in test [1] and in test [2] was greater than 10000 nM throughout.

Turning to `O=C(c1cncc(N(Cc2ccc(-c3noc(C(F)(F)F)n3)s2)c2cnccn2)c1)N1CCOCC1` [Example GR, N-[5-(Morpholine-4-carbonyl)pyridin-3-yl]-N-({5-[5-(trifluoromethyl)-1,2,4-oxadiazol-3-yl]thiophen-2-yl}methyl)pyrazin-2-amine], the IC50 in test [1] and in test [2] was greater than 10000 nM in each case.

As to `CC(C)(O)c1cnnc(N(Cc2ccc(-c3noc(C(F)(F)F)n3)s2)c2cnccn2)c1` [Example GS, 2-{6-[(Pyrazin-2-yl)({5-[5-(trifluoromethyl)-1,2,4-oxadiazol-3-yl]thiophen-2-yl}methyl)amino]pyridazin-4-yl}propan-2-ol], the IC50 in test [1] and in test [2] was greater than 10000 nM in each case.

For `CC1(c2cnnc(N(Cc3ccc(-c4noc(C(F)(F)F)n4)s3)c3cnccn3)c2)COC1` [Example GT, 5-(3-Methyloxetan-3-yl)-N-(pyrazin-2-yl)-N-({5-[5-(trifluoromethyl)-1,2,4-oxadiazol-3-yl]thiophen-2-yl}methyl)pyridazin-3-amine], the IC50 in test [1] and in test [2] was greater than 10000 nM throughout.

For `CC(F)(F)c1cnnc(N(Cc2ccc(-c3noc(C(F)(F)F)n3)s2)c2cnccn2)c1` [Example GU, 5-(1,1-Difluoroethyl)-N-(pyrazin-2-yl)-N-({5-[5-(trifluoromethyl)-1,2,4-oxadiazol-3-yl]thiophen-2-yl}methyl)pyridazin-3-amine], the IC50 in test [1] and in test [2] was greater than 10000 nM each time.

For `FC(F)c1cnnc(N(Cc2ccc(-c3noc(C(F)(F)F)n3)s2)c2cnccn2)c1` [Example GV, 5-(Difluoromethyl)-N-(pyrazin-2-yl)-N-({5-[5-(trifluoromethyl)-1,2,4-oxadiazol-3-yl]thiophen-2-yl}methyl)pyridazin-3-amine], the IC50 in test [1] and in test [2] was greater than 10000 nM each time.

For the molecule `OC1(c2cnnc(N(Cc3ccc(-c4noc(C(F)(F)F)n4)s3)c3cnccn3)c2)COC1` [Example GW, 3-{6-[(Pyrazin-2-yl)({5-[5-(trifluoromethyl)-1,2,4-oxadiazol-3-yl]thiophen-2-yl}methyl)amino]pyridazin-4-yl}oxetan-3-ol], the IC50 in test [1] and in test [2] was greater than 10000 nM in each case.

For the molecule `C[C@H]1CCCN1C(=O)c1cnnc(N(Cc2ccc(-c3noc(C(F)(F)F)n3)s2)c2cnccn2)c1` [Example GY, 5-[(2S)-2-Methylpyrrolidine-1-carbonyl]-N-(pyrazin-2-yl)-N-({5-[5-(trifluoromethyl)-1,2,4-oxadiazol-3-yl]thiophen-2-yl}methyl)pyridazin-3-amine], the half-maximal inhibitory concentration (IC50) in test [1] and in test [2] was greater than 10000 nM throughout.

For `FC(F)(F)c1nc(-c2ccc(CN(c3ccccn3)c3ccccn3)s2)no1` [Example U, N-(Pyridin-2-yl)-N-({5-[5-(trifluoromethyl)-1,2,4-oxadiazol-3-yl]thiophen-2-yl}methyl)pyridin-2-amine], the half-inhibitory concentration (IC50) in test [1] and in test [2] was greater than 10000 nM throughout.

As usually defined, the IC50 is the concentration that gives 50% inhibition.
